Data taken from ChEMBL document CHEMBL1144786, “synthesis and biological evaluation of fully functionalized seco-pancratistatin analogues” (2008).
Values after ≈ are worked out from the molar mass of the structure shown.

What was measured:
P388 = assay: Cytotoxicity against mouse P388 cells; type: functional; details: read-out: ED50 (the source's name)
MCF7 = assay: Cytotoxicity against human MCF7 cells; type: functional; details: read-out: ED50 (the source's name)

SMILES	EC50 (P388) [µg/mL]	EC50 (MCF7) [µg/mL]
O=C1N[C@H]2[C@H](O)[C@H](O)CC[C@@H]2c2cc3c(cc21)OCO3	1.39 (≈ 5.01 µM)	
O=C(NC[C@@H](c1ccc2c(c1)OCO2)[C@@H](O)[C@H](O)[C@@H](O)CO)c1ccccc1		> 30
O=C1N[C@H]2C[C@H](O)[C@@H](O)C[C@@H]2c2cc3c(cc21)OCO3	0.45 (≈ 1.62 µM)	
CC1(C)O[C@@H]([C@H](O)[C@@H](CNC(=O)c2ccccc2)c2ccc3c(c2)OCO3)[C@H](CO)O1		> 30
O=C1N[C@H]2[C@H](O)[C@H](O)[C@@H](O)[C@H](O)[C@@H]2c2cc3c(c(O)c21)OCO3 [PANCRATISTATIN]	0.039 (≈ 0.12 µM)	
